Results on 2 compounds are retold here after ChEMBL document CHEMBL3797103, “Synthesis of a dansyl-labeled inhibitor of 17β-hydroxysteroid dehydrogenase type 3 for optical imaging” (Bioorg Med Chem Lett, 2016).

One may read the IC50 as the concentration that inhibits the measured activity by half.

For series [1], the target named is T1, 17-beta-hydroxysteroid dehydrogenase type 3 (Homo sapiens, UniProt P37058).
T1 sequence (P37058 whole entry): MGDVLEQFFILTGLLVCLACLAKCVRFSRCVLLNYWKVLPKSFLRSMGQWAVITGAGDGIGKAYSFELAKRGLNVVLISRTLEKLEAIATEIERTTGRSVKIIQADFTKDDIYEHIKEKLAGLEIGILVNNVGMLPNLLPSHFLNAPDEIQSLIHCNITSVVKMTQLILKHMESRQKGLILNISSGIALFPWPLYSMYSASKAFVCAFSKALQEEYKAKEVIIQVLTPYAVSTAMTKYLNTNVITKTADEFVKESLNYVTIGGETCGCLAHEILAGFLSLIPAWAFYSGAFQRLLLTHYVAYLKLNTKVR
Nature of the series: Inhibition of 17betaHSD3 (unknown origin) transfected in human LNCAP cells assessed as conversion of [14C]-4-androstene-3,17-dione into [14C]-testosterone after 3 hrs. It is filed as cell-based.

Series [2] relates to LNCaP. In words: Drug uptake in 17betaHSD3 expressing human LNCAP cells assessed as shape of the cells at 10 uM excited at 350 nm after 4 hrs by fluorescence confocal spinning disk microscopic analysis. The class given is ADME, cell-based.
Series [3] deals with LNCaP. In words: Drug uptake in wild type human LNCAP cells assessed as shape of the cells at 10 uM excited at 350 nm after 4 hrs by fluorescence confocal spinning disk microscopic analysis. It is filed as ADME, cell-based.
The subject of series [4] is LNCaP. In words: Drug uptake in 17betaHSD3 expressing human LNCAP cells assessed as mean fluorescence intensity at 30 uM after 4 hrs by flow cytometric analysis. The class given is ADME, cell-based. Background: In flow cytometry, cells or beads pass a laser one at a time.
Series [5] has as its system LNCaP. In words: Drug localization in 17betaHSD3 expressing human LNCAP cell assessed as localized space around endoplasmic reticulum at 1 uM preincubated for 3 hrs followed by ER tracker addition for the last remaining hour by fluorescent microscopic analysis. The class given is ADME, cell-based.
Series [6] in a line: Drug localization in 17betaHSD3 expressing human LNCAP cell assessed as localised around lysosomes at 1 uM after 4 hrs by fluorescent microscopic analysis in the presence of lysosome tracker. The class given is ADME, cell-based.
Series [7] concerns LNCaP. Nature of the series: Drug uptake in 17betaHSD3 expressing human LNCAP cells at 3 to 50 uM after 4 hrs by flow cytometric analysis. The class given is ADME, cell-based.
Series [8] concerns LNCaP. In words: Drug uptake in wild-type human LNCAP cells at 3 to 50 uM after 4 hrs by flow cytometric analysis. It is filed as ADME, cell-based.

Regarding `C[C@@H]1CN(S(=O)(=O)c2ccccc2C(F)(F)F)[C@@H](C)CN1C[C@@]1(O)CC[C@@]2(C)[C@@H](CC[C@@H]3[C@@H]2CC[C@]2(C)C(=O)CC[C@@H]32)C1`, in series [1], the IC50 worked out at 85 nM.
Regarding `C[C@@H]1CN(S(=O)(=O)c2cccc3c(N(C)C)cccc23)[C@@H](C)CN1C[C@@]1(O)CC[C@@]2(C)[C@@H](CC[C@@H]3[C@@H]2CC[C@]2(C)C(=O)CC[C@@H]32)C1`, the half-maximal inhibitory concentration (IC50) in series [1] is 262 nM. In addition, the Drug uptake entry in the series on LNCaP [2] was “Active”; with LNCaP [3], “Not Active”; with LNCaP [5] it was “Active”; in series [6], “Active”; in the series on LNCaP [7], “Active”; with LNCaP [8], “Active”. In addition, the Flu intensity in the series with LNCaP [4] is 4.
